Assay [1] deals with Cyclin-dependent kinase 5/CDK5 activator 1 (Homo sapiens) (UniProt Q00535+Q15078). In words: Selectivity interaction (Kinase panel (Z-LYTE Assay)) EUB0001632a CDK5. Format: protein-complex assay. The conditions noted are these: at 10 µM.
For assay [2], the target named is Dual specificity protein kinase CLK2 (Homo sapiens, UniProt P49760). In words: Selectivity interaction (Kinase panel (Z-LYTE Assay)) EUB0001632a CLK2. The conditions noted are these: at 10 µM.
Assay [3] deals with Mitogen-activated protein kinase kinase kinase 20 (Homo sapiens) (UniProt Q9NYL2). The assay is described as follows: Selectivity interaction (LanthaScreen Eu Kinase Binding Assay) EUB0001632a MAP3K20. The conditions noted are these: at 10 µM. (TR-FRET usually uses a lanthanide donor and a delayed reading to cut background.)
The target of assay [4] is Insulin-like growth factor 1 receptor (Homo sapiens, UniProt P08069). In words: Selectivity interaction (SelectScreen profiling (Invitrogen)) EUB0000607a IGF1R. The following applies: at 2 µM.
For assay [5], the target named is Serine/threonine-protein kinase N1 (Homo sapiens, UniProt Q16512). The assay is described as follows: Selectivity interaction (SelectScreen profiling (Invitrogen)) EUB0000607a PKN1. The following applies: at 2 µM.
Assay [6] concerns the target Mitogen-activated protein kinase kinase kinase kinase 4 (Homo sapiens, UniProt O95819). In words: Selectivity interaction (KinomeScan (DiscoverX)) EUB0000655a MAP4K4. The conditions noted are these: at 10 µM.
Assay [7] concerns the target T1, Myosin light chain kinase family member 4 (Homo sapiens) (UniProt Q86YV6).
T1 sequence (whole entry): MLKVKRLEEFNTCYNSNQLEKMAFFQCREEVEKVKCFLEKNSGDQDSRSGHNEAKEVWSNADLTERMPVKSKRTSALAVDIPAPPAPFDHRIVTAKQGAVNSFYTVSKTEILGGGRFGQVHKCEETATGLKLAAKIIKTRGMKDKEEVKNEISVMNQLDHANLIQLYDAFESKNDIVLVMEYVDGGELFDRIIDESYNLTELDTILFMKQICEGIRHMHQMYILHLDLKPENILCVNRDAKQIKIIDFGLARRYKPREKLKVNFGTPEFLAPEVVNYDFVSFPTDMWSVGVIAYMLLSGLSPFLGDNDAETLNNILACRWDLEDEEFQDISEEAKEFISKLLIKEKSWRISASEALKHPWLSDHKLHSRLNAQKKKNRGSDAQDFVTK
In words: Selectivity interaction (KinomeScan (DiscoverX)) EUB0001619a MYLK4. The conditions noted are these: at 1 µM.

Assay [8] addresses Ribosomal protein S6 kinase alpha-1 (Homo sapiens, UniProt Q15418). The assay is described as follows: Selectivity interaction (KinomeScan (DiscoverX)) EUB0001619a RPS6KA1. The following applies: at 1 µM.
Assay [9] concerns the target T2, Ribosomal protein S6 kinase alpha-3 (Homo sapiens, UniProt P51812). The assay is described as follows: Selectivity interaction (ActivX KiNativ screen (ex vivo kinase selectivity in human PBMCs)) EUB0001619a RPS6KA3. Format: cell-based. The following applies: PBMC, at 1 µM.
Assay [10] deals with Tyrosine-protein kinase Yes (Homo sapiens) (UniProt P07947). The assay is described as follows: Selectivity interaction (KinomeScan (DiscoverX)) EUB0001619a YES1. The conditions noted are these: at 1 µM.
The target in assay [11] is Thyrotropin-releasing hormone receptor (Homo sapiens) (UniProt P34981). The assay is described as follows: Selectivity interaction (Eurofins CEREP Diversity Profile (receptors and ion channels)) EUB0000279b TRH. The conditions noted are these: at 10 µM.
The target in assay [12] is T3, Serine/threonine-protein kinase 17B (Homo sapiens) (UniProt O94768).
T3 sequence (whole entry): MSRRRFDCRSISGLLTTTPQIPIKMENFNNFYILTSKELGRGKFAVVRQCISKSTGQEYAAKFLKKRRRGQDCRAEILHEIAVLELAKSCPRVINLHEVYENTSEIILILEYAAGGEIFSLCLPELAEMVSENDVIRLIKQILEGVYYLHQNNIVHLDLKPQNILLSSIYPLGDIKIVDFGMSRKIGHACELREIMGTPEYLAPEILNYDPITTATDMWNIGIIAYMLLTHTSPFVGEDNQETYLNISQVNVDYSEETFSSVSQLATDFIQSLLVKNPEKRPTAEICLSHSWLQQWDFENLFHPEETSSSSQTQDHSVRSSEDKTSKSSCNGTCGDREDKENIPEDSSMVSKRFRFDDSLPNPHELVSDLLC
In words: Selectivity interaction (KinomeScan (DiscoverX)) EUB0000092b STK17B. The conditions noted are these: at 10 µM.

Assay [13] has as its target T4, Mitogen-activated protein kinase kinase kinase 12 (Homo sapiens) (UniProt Q12852).
T4 sequence (whole entry): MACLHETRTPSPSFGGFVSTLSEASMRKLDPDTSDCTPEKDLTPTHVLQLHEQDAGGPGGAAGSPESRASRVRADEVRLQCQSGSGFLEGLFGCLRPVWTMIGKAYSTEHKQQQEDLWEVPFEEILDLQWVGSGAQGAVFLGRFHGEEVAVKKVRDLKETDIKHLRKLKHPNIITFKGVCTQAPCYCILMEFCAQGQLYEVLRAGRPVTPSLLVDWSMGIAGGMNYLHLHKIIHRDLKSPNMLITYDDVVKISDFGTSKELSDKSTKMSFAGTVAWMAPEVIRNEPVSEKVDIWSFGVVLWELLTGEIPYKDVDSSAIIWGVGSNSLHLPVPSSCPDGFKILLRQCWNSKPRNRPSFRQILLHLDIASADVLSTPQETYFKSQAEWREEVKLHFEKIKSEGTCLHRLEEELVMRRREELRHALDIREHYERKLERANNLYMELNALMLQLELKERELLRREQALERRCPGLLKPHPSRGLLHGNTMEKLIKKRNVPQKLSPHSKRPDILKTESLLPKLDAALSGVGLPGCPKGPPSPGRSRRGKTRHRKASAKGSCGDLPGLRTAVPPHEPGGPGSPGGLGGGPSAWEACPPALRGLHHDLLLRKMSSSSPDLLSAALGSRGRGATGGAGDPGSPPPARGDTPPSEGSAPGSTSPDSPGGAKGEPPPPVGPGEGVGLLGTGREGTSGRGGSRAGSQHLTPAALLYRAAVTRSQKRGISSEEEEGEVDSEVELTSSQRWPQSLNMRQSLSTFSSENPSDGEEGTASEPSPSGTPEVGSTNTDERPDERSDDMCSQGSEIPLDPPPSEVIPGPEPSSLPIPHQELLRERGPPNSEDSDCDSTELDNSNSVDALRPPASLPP
The assay is described as follows: Selectivity interaction (KinomeScan (DiscoverX)) EUB0000092b MAP3K12. The conditions noted are these: at 10 µM.

The target of assay [14] is T3, Serine/threonine-protein kinase 17B (Homo sapiens). The assay is described as follows: Selectivity interaction (Kinase panel (DSF assay)) EUB0001559a STK17B. Background: DSF heats the sample and reads unfolding from a dye or from intrinsic fluorescence.
Assay [15] addresses Tyrosine-protein kinase receptor UFO (Homo sapiens) (UniProt P30530). In words: Selectivity interaction (KinomeScan (DiscoverX)) EUB0000045b AXL.
In assay [16] the target is Dual specificity tyrosine-phosphorylation-regulated kinase 1A (Homo sapiens, UniProt Q13627). In words: Selectivity interaction (KinomeScan (DiscoverX)) EUB0000045b DYRK1A.
The target of assay [17] is Dual specificity tyrosine-phosphorylation-regulated kinase 1B (Homo sapiens, UniProt Q9Y463). The assay is described as follows: Selectivity interaction (KinomeScan (DiscoverX)) EUB0000045b DYRK1B.
Assay [18] concerns the target Tyrosine-protein kinase Fyn (Homo sapiens) (UniProt P06241). The assay is described as follows: Selectivity interaction (KinomeScan (DiscoverX)) EUB0000618a FYN. The conditions noted are these: at 10 µM.
Assay [19] concerns the target T2, Ribosomal protein S6 kinase alpha-3. In words: Selectivity interaction (KinomeScan (DiscoverX)) EUB0000595a RPS6KA3. The conditions noted are these: at 10 µM.

Chain of Tyrosine-protein kinase receptor UFO (Homo sapiens) (P30530 whole entry): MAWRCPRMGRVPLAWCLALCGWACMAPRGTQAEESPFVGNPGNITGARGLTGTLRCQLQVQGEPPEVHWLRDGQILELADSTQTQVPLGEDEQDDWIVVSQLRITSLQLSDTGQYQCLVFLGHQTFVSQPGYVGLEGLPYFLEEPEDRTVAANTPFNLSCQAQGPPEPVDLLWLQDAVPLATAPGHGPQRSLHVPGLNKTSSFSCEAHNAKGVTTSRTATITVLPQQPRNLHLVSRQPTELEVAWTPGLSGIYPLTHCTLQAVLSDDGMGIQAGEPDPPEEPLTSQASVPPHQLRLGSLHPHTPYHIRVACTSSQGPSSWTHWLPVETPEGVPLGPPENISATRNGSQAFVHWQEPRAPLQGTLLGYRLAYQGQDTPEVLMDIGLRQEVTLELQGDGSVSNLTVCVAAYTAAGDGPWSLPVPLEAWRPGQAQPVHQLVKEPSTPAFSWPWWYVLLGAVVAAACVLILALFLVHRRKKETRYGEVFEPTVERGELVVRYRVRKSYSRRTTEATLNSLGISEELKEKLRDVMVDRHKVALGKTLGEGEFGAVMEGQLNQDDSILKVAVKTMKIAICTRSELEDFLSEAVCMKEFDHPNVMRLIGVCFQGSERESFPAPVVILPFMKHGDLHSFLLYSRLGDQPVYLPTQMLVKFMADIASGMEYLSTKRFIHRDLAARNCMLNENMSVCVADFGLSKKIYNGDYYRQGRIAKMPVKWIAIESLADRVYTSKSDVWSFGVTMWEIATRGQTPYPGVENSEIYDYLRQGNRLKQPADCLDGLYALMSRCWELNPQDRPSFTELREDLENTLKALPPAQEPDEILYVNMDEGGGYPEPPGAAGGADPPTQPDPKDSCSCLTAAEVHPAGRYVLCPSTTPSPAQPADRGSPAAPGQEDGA
Chain of Dual specificity tyrosine-phosphorylation-regulated kinase 1B (Q9Y463 whole entry, looked up): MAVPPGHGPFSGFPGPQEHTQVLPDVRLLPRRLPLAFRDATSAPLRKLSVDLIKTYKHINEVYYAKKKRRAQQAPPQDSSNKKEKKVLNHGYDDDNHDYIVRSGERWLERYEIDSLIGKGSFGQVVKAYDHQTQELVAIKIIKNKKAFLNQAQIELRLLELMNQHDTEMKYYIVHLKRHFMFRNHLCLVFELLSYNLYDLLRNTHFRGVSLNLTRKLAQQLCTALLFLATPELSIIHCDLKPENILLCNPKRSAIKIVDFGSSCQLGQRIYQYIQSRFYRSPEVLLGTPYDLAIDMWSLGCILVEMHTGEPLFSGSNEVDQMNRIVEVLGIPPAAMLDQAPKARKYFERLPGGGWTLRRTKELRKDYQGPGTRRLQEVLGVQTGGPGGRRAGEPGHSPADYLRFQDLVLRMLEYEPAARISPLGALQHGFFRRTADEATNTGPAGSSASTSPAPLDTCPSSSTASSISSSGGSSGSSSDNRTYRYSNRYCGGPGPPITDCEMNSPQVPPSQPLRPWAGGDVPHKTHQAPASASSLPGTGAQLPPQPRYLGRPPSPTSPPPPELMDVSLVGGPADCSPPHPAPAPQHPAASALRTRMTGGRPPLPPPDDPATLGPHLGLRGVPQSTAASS
T2 sequence (P51812 whole entry): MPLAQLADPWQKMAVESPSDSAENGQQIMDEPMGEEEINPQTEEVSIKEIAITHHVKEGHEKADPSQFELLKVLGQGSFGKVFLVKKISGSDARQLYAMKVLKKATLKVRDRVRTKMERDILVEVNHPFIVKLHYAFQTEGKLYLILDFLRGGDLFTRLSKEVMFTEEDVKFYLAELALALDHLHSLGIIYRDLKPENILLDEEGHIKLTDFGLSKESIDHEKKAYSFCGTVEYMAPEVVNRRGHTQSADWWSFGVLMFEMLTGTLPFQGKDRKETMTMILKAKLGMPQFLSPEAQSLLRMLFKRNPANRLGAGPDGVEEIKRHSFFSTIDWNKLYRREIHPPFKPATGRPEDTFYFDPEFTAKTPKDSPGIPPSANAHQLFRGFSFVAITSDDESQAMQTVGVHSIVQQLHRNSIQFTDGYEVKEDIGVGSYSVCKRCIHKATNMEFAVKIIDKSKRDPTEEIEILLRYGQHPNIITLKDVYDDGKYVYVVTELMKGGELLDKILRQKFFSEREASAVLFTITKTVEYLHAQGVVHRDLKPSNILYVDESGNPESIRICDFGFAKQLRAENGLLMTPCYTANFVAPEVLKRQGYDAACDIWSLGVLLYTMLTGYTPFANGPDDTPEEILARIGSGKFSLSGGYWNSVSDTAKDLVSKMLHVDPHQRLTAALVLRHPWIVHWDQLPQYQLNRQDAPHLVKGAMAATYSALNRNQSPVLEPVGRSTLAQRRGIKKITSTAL
Chain of Tyrosine-protein kinase Yes (Homo sapiens) (P07947 2-543 limits assumed): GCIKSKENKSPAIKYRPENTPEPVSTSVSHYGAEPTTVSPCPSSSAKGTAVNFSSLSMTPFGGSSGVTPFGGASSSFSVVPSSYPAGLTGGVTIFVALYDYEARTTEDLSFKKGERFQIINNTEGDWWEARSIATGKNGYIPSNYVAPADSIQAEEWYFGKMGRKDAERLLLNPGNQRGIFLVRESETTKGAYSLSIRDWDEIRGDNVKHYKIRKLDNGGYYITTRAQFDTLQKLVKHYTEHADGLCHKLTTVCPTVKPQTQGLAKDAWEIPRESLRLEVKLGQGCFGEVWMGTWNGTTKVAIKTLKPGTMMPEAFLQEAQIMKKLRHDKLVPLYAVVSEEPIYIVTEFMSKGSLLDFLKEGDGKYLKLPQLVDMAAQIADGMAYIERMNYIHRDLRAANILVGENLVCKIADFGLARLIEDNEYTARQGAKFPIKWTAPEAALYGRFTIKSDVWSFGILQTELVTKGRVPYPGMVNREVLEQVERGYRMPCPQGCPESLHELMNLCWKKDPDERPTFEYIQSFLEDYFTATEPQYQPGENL
Chain of Cyclin-dependent kinase 5/CDK5 activator 1 (Homo sapiens) (Q00535 whole entry): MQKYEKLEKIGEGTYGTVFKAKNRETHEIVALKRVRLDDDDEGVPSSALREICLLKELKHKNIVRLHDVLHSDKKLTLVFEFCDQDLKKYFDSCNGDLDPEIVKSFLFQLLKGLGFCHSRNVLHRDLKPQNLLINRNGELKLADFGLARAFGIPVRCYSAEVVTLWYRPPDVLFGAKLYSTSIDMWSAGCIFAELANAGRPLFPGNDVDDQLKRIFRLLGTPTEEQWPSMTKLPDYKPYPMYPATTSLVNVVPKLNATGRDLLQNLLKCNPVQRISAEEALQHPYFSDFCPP
Chain of Cyclin-dependent kinase 5/CDK5 activator 1 (Homo sapiens) (Q15078 99-307 partner limits assumed): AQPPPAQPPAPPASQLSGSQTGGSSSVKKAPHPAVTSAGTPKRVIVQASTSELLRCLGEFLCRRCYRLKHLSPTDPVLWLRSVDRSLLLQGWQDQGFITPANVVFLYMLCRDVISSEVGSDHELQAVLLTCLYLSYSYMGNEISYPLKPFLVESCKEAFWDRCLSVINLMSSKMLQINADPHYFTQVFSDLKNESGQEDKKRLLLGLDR
Chain of Thyrotropin-releasing hormone receptor (Homo sapiens) (P34981 whole entry): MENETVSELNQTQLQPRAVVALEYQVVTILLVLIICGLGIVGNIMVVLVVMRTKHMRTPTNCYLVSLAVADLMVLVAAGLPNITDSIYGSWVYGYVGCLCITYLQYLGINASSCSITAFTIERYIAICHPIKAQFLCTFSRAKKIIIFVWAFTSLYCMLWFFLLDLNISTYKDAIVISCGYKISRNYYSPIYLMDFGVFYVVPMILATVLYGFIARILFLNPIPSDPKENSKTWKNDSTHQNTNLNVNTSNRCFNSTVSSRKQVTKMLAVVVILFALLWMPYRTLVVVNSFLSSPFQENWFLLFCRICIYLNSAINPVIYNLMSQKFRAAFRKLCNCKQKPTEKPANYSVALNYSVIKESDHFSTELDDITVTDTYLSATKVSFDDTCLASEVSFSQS
Chain of Serine/threonine-protein kinase N1 (Q16512 2-942 limits assumed): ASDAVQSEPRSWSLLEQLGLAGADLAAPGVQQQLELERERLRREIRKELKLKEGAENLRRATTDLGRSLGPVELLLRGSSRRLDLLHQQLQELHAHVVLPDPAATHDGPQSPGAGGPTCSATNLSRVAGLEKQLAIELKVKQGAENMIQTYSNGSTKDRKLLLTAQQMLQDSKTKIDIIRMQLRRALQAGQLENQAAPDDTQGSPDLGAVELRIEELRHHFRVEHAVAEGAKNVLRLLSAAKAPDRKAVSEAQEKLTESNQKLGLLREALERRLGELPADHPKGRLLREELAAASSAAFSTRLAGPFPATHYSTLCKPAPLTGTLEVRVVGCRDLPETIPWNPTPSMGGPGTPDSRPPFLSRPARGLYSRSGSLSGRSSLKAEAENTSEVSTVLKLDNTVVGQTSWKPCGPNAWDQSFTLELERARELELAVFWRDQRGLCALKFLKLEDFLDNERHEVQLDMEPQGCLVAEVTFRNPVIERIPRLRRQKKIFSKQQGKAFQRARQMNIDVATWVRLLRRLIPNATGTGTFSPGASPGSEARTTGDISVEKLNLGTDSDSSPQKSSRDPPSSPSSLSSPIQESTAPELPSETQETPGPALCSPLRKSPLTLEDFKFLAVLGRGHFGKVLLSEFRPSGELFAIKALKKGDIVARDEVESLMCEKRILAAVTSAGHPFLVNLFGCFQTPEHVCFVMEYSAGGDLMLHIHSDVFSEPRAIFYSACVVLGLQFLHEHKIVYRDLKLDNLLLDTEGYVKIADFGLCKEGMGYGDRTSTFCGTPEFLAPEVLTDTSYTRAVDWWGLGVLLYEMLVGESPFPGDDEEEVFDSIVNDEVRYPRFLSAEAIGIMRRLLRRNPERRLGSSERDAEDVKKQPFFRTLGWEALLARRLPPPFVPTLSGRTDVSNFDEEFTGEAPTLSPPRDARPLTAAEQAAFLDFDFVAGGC

Turning to `Cn1cc(-n2cnc3c(NCc4nc5cc(Cl)c(Cl)cc5[nH]4)nc(N4CCOCC4)nc32)cn1`, the % of control in assay [1] stood at 3.1%; in [2], 4.94%. Moreover, in [3], the % of inhibition is -9.9%.

Turning to `CNC(=O)Nc1ccc(-c2nc(N3CC4CCC(C3)O4)c3cnn(C4CCC5(CC4)OCCO5)c3n2)cc1`, the % of inhibition in assay [4] is 1%; in assay [5], 14%.

As for `CN(C)CCOc1ccc(-c2nc(-c3ccncc3)c(-c3ccc4c(c3)CC/C4=N\O)[nH]2)cc1`, the % of control in assay [6] was found to be 27%.

Consider `N#Cc1cccc(-c2c[nH]c3ncnc(N4CCOCC4)c23)c1`, for which the values for the % of control in [7], in assay [8] and in assay [10] were 100%, 100% and 95%, respectively. The % of inhibition in [9] was found to be 21%.

`CC(=O)c1cc(-c2ccccc2OCC2CC2)c2ncccn12`: the % of control in assay [11] turned out to be 94%.

Take `CCC(=O)N1CCN(c2ccc(-n3c(=O)ccc4cnc5ccc(-c6cnc7ccccc7c6)cc5c43)cc2C(F)(F)F)CC1`: the % of control was 67% in assay [12] and 100% in [13].

For `CN(C(=O)c1cnn2cccnc12)c1cc2c(cc1N1CCOCC1)C(=O)N(C[C@@H](F)C(C)(C)O)C2`, the dTM in [14] came to 1 K.

`C=CC(=O)Nc1cc(-n2c(=O)ccc3cnc4ccc(-c5ccc(NS(C)(=O)=O)cc5)cc4c32)ccc1C`: the % of control amounted to 100% in assay [15] (at 1 µM); 100% in assay [15] (at 10 µM); 100% in assay [16] (at 1 µM); 62% in assay [16] (at 10 µM); 100% in assay [17] (at 1 µM); 81% in [17] (at 10 µM).

On to `O[C@H]1CC[C@H](Nc2ncc3nc(Nc4c(F)cc(F)cc4F)n([C@H]4CCOC4)c3n2)CC1`, for which the % of control in [18] amounted to 100%.

As to `COCC(=O)NC/C=C/c1ccc2ncnc(Nc3ccc(Oc4ccc(C)nc4)c(C)c3)c2c1` [CP-724714], the % of control in [19] turned out to be 92%.
